Common to all, as to format: physicochemical
The nature of series [1]: Drug degradation in DMSO assessed as oxidation.
Series [2] can be described thus: Drug degradation in DMSO by UV-Vis spectrophotometry.
A short description of series [3]: Drug degradation in DMSO by NMR spectrophotometry.
Series [4] is described as follows: Drug degradation in DMSO.
Series [5] in a line: Drug degradation in DMSO assessed as oxidation after overnight incubation.
Series [6] is described as follows: Drug degradation in DMSO assessed as 2,6,8-triaminopyrimido[5,4-g]pteridin-4(3H)-one after 87 days by NMR spectroscopy. To be noted: 2088 h.
Series [7] is described as follows: Drug degradation in DMSO assessed as oxidation after two months. To be noted: 1461 h.
Series [8] can be described thus: Drug degradation in DMSO after 7 days by NMR spectroscopy. The following applies: 168 h.
Series [9] can be described thus: Drug degradation in DMSO assessed as 2,6-diamino-5-(2,6-diamino-4-oxopyrimidin-5(4H)-ylideneamino)pyrimidin-4(3H)-one formation after 1 day by NMR spectroscopy. To be noted: 24 h.
The nature of series [10]: Drug degradation in acidified DMSO.
Series [11] can be described thus: Drug degradation in DMSO assessed as 2,6,8-triaminopyrimido[5,4-g]pteridin-4(3H)-one formation at 10 mM incubated over 2 months by UV-Vis spectrophotometry. To be noted: 1461 h, 10000 µM.
A short description of series [12]: Drug degradation in alkalised DMSO assessed as 2,6,8-triaminopyrimido[5,4-g]pteridin-4(3H)-one formation after 24 hrs.
Series [13] in a line: Drug degradation in DMSO assessed as 2,6-diamino-5-(2,6-diamino-4-oxopyrimidin-5(4H)-ylideneamino)pyrimidin-4(3H)-one formation after 11 days by UV-Vis spectrophotometry. To be noted: 264 h.
Series [14] can be described thus: Drug degradation in DMSO assessed as ammonium cation formation after 2 days by NMR spectroscopy. To be noted: 48 h.
Series [15] can be described thus: Drug degradation in alkalised DMSO assessed as 2,6-diamino-5-(2,6-diamino-4-oxopyrimidin-5(4H)-ylideneamino)pyrimidin-4(3H)-one formation.
A short description of series [16]: Drug degradation in DMSO assessed as 2,6,8-triaminopyrimido[5,4-g]pteridin-4(3H)-one formation after 11 days by UV-Vis spectrophotometry. To be noted: 264 h.
Series [17] is described as follows: Drug degradation in DMSO assessed as 2,6-diamino-5-(2,6-diamino-4-oxopyrimidin-5(4H)-ylideneamino)pyrimidin-4(3H)-one formation at 10 mM incubated over 2 months by UV-Vis spectrophotometry. To be noted: 1461 h, 10000 µM.
Series [18] can be described thus: Drug degradation in DMSO assessed as pyrimido[5,4-g]pteridine-4,6(3H,7H)-dione formation after 2 months. To be noted: 1461 h.
A short description of series [19]: Drug degradation in DMSO assessed as bis-alloxazine and pyrimido[4,5-g]pteridine-2,4,7,9(1H,3H,6H,8H)-tetraone formation after 3 months. To be noted: 2191.5 h.
A short description of series [20]: Drug degradation in DMSO assessed as murexide by UV-Vis spectrophotometry.
A short description of series [21]: Drug degradation in DMSO assessed as ammonium cation formation by NMR spectroscopy.
Series [22] in a line: Drug degradation in DMSO assessed as methoxy group hydrolysis by NMR spectrophotometry.
The nature of series [23]: Drug degradation in DMSO assessed as bis-alloxazine and pyrimido[4,5-g]pteridine-2,4,7,9(1H,3H,6H,8H)-tetraone formation.
A short description of series [24]: Drug degradation in DMSO after 2 months by UV-Vis spectrophotometry. The following applies: 1461 h.
The nature of series [25]: Drug degradation in DMSO assessed as 5-aminobarbiturate formation by UV-Vis spectrophotometry.
Series [26] can be described thus: Drug degradation in DMSO assessed as pyrimido[5,4-g]pteridine-2,4,6,8-tetraamine formation by UV-Vis spectrophotometry.
The nature of series [27]: Drug degradation in DMSO assessed as pyrimido[4,5-g]pteridine-2,4,7,9-tetraamine formation by UV-Vis spectrophotometry.

`Nc1c(Cl)ncnc1Cl`: the Drug degradation result in [1] is listed as “Not Active”.

For the compound `Nc1nc(Cl)c(N)c(Cl)n1`, the Drug degradation result in series [1], in [2], in series [3] and in series [4] was “Active” in each case.

In the case of `Nc1nc(N)c(N)c(O)n1`, the Drug degradation result in series [5], in series [6], in series [7], in series [8], in [9] and in series [10] was “Active” throughout. Further, the Drug degradation entry in [11], in [12], in series [13], in [14], in series [15] and in [16] was “Active” each time. In addition, the Drug degradation result in series [4] and in [17] was “Active” in each case.

In the case of `Nc1ncnc(O)c1N`, the Drug degradation result in series [18] and in series [4] was “Active” each time.

On to `Nc1c[nH]c(=O)nc1N`, for which the Drug degradation result in [1], in series [4] and in series [19] was “Active” each time.

As to `NC1C(=O)NC(=O)NC1=O`, the Drug degradation entry in series [20], in series [21] and in series [4] was “Active” in each case.

As for `COc1nc(N)nc(OC)c1N`, the Drug degradation result in series [1], in [22] and in [4] was “Active” throughout.

With `Nc1[nH]c(=O)[nH]c(=O)c1N`, the Drug degradation entry in series [23] and in series [4] was “Active” in each case.

As to `Nc1cc(O)nc(N)n1`, the Drug degradation result in series [4] is “Not Active”.

Consider `Nc1ncnc(N)c1N`, for which the Drug degradation entry in series [2] and in series [24] was “Not Active” in each case.

As to `Nc1c[nH]c(=O)[nH]c1=O`, the Drug degradation entry in [20], in [25] and in [4] was “Active” each time.

Regarding `Nc1nc(N)c(N)c(N)n1`, the Drug degradation result in series [5], in [26], in [27] and in series [4] was “Active” throughout.

Take `Nc1nc(S)[nH]c(=O)c1N`: the Drug degradation entry in series [2], in [21] and in series [4] was “Active” each time.

(Values after ChEMBL document CHEMBL2150899, “Compound instability in dimethyl sulphoxide, case studies with 5-aminopyrimidines and the implications for compound storage and screening” (Bioorg Med Chem Lett, 2012).)
